From patent US20240174634A1, “Aldehyde Dehydrogenase Inhibitors and Their Therapeutic Use” (priority 2020, published 2024)

What was measured:
ALDH1A1 = biological target: T1, ALDH1A1 (Homo sapiens, UniProt P00352); test: Selectivity biochemical assay, NAD(P)H-Glo Detection System
T1 construct: His-tag; made in house; host or cells: E. coli Rosetta (DE3)
T1 sequence (P00352 1-501): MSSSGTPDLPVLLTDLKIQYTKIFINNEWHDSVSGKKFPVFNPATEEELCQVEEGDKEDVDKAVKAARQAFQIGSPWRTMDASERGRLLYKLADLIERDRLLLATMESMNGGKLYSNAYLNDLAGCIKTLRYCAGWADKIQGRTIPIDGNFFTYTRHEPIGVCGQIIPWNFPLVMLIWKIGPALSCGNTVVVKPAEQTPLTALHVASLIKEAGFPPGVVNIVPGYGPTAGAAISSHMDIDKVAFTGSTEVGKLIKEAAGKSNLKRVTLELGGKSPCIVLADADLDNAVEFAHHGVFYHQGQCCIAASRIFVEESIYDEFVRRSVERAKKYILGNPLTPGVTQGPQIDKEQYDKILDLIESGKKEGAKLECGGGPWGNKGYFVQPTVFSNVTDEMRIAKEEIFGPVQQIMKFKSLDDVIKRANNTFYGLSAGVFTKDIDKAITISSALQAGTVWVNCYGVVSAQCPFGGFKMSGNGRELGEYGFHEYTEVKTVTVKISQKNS
From the text: (§1) Cloning: Open reading frames corresponding to the protein coding sequences of full length human ALDH1A1 (Uniprot ID P00352), ALDH1A2 (094788) and ALDH1A3 (P47895) were polymerase chain reaction (PCR) amplified from human cDNA and inserted into the multi-cloning sites of the commercially available (Novagen) E. coli expression vectors pET47b (ALDH1A1, EcoRI restriction site; ALDH1A2, BamHI and EcoRI sites) or pET28a (ALDH1A3, NdeI and BamHI sites), using standard molecular genetic techniques. Recombinant DNA products were sequence verified prior to use in expression studies.
(§2) Expression: Expression constructs were transformed into the E. coli strain Rosetta (DE3) (Merck) and individual colonies used to inoculate 10 mL lysogen broth (LB) medium supplemented with kanamycin and chloramphenicol at 50 μg/mL and 34 μg/mL, respectively. Cultures were grown to saturation overnight at 37° C., prior to being used to sub-inoculate fresh 1 L LB medium cultures (plus antibiotics, as before). 1 L cultures were grown at 37° C., 200 rpm, throughout the day until the optical density at 600 nm (OD600) reached ˜0.8, at which point growth temperature was reduced to 18° C. and 1 mM isopropyl β-d-1-thiogalacto pyranoside (IPTG) added to induce protein expression.
(§3) Cultures were left overnight (at least 16 h) under these conditions and the following day harvested by centrifugation (4000 G, 10 minutes). Culture supernatant was discarded and cell pellets stored at −80° C. until further processing.
(§4) Purification: Cell pellets were thawed on ice, re-suspended in Ni Affinity Buffer A (20 mM HEPES pH 7.5, 300 mM NaCl, 20 mM imidazole, 1 mM tris(2-carboxyethyl)phosphine (TCEP)) with protease inhibitors (cOmplete Ultra protease inhibitor, Roche), and lysed by sonication. Lysates were clarified by centrifugation at 18,000 G, 4° C., for 40 minutes, and loaded directly onto a pre-equilibrated (Buffer A) 5 mL HisTrap Fast Flow column (GE Healthcare) by way of an AKTA Fast Protein Liquid Chromatography (FPLC) system. The column was sequentially treated with 6 column volumes (CV) 100% Buffer A, 8 CV of 90% Buffer A:10% Buffer B (20 mM 4-(2-hydroxyethyl)-1-piperazineethanesulfonic acid (HEPES) pH 7.5, 300 mM NaCl, 500 mM imidazole, 1 mM TCEP) and finally a linear gradient from 10-70% Buffer B over 8 CV to elute recombinant His-tagged protein. Relevant fractions (as measured by 280 nm absorbance) collected during elution were pooled and subjected to further purification by size exclusion chromatography (Superdex 200 26/600, GE Healthcare, running buffer 20 mM 2-(carbamoylmethylamino)ethanesulfonic acid (ACES) pH 7.5, 1 mM TCEP). Relevant fractions from this step were pooled, aliquoted, and stored at −80° C. until required for compound profiling assays.
(§5) Materials: ALDH2 was purchased from Abnova. Tris(hydroxymethyl)aminomethane (Tris) was purchased from MP Biomedicals. TCEP, ethylenediaminetetraacetic acid (EDTA), propionaldehyde, DMSO and Tween-20 were purchased from Sigma. Nicotinamide adenine dinucleotide (NAD) was obtained from Abcam. The NAD(P)H-Glo™ Detection System was purchased from Promega. White, non-binding surface, 384 well plates were supplied by Corning (#3574).
(§6) Method: Inhibition of ALDH1A3 was assessed using the NAD(P)H-Glo™ Detection System (Cat. No. G9062) from Promega. This assay detects the production of NADH from NAD by ALDH1A3 via the coupled enzymatic conversion of a proluciferin reductase substrate to generate a luminescent signal. Inhibition of ALDH1A3 by small molecule inhibitors will result in reduction or abrogation of luminescence signal increase above background. Inhibition of ALDH1A1, ALDH1A2 and ALDH2 (selectivity assays) were assessed using the same assay.
(§7) Compounds were dosed into Corning 384 well assay plates using an Echo acoustic dispenser to give 10 point curves in a 3-fold dilution series. Compounds were dispensed from a 20 mM DMSO stock and initially screened at a top concentration of 20 μM (ALDH1A3) or 250 μM (ALDH1A1, ALDH1A2 & ALDH2). […]

ALDH1A3 = biological target: T2, ALDH1A3 (Homo sapiens, UniProt P47895); test: Primary biochemical assay, NAD(P)H-Glo Detection System; design: His-tag; made in house; host or cells: E. coli Rosetta (DE3); settings: 30 min pre-incubation, propionaldehyde and NAD at Km
T2 sequence (P47895 1-512): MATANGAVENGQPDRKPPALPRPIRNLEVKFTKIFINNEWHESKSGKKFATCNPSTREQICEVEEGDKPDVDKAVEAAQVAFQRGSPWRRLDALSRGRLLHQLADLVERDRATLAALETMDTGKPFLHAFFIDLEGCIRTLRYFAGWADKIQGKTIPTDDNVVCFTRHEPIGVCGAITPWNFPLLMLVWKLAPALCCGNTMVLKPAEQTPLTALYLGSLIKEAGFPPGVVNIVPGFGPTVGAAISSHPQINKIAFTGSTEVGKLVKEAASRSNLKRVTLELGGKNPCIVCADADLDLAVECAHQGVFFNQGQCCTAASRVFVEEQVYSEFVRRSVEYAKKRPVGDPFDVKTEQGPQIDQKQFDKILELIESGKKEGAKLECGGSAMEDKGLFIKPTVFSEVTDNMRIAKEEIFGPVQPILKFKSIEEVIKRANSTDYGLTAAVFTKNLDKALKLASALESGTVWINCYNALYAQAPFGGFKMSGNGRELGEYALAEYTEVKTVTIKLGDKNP
From the text: as §1, §2, §3, §4, §5, §6, §7

For `Cc1onc(-c2cccc(F)c2)c1C(=O)Nc1ccc2c(c1)CCC(=O)N2` [ALDHI-1009, 3-(3-fluorophenyl)-5-methyl-N-(2-oxo-3,4-dihydro-1H-quinolin-6-yl)isoxazole-4-carboxamide], the IC50 (ALDH1A1) was ≥ 100 µM and the IC50 (ALDH1A3) was 1 to 10 µM.
In the case of `O=C1CCc2cc(NC(=O)c3scnc3-c3cccc(C(F)(F)F)c3)ccc2N1` [ALDHI-1015, N-(2-oxo-3,4-dihydro-1H-quinolin-6-yl)-4-[3-(trifluoromethyl)phenyl]thiazole-5-carboxamide], the IC50 (ALDH1A1) is reported as ≥ 100 µM and the IC50 (ALDH1A3) is reported as 1 to 10 µM.
With `O=C1CCc2cc(NC(=O)c3scnc3-c3cc(F)cc(F)c3)ccc2N1` [ALDHI-1024, 4-(3,5-difluorophenyl)-N-(2-oxo-3,4-dihydro-1H-quinolin-6-yl)thiazole-5-carboxamide] the IC50 (ALDH1A1) was ≥ 100 µM and the IC50 (ALDH1A3) was < 0.1 µM.
With `O=C1CCc2cc(NC(=O)c3scnc3-c3cccc(F)c3)c(F)cc2N1` [ALDHI-1025, N-(7-fluoro-2-oxo-3,4-dihydro-1H-quinolin-6-yl)-4-(3-fluorophenyl)thiazole-5-carboxamide] the IC50 (ALDH1A1) was ≥ 100 µM and the IC50 (ALDH1A3) was < 0.1 µM.
For `Cc1nc(-c2cccc(F)c2)c(C(=O)Nc2ccc3c(c2)CCC(=O)N3)s1` [ALDHI-1026, 4-(3-fluorophenyl)-2-methyl-N-(2-oxo-3,4-dihydro-1H-quinolin-6-yl)thiazole-5-carboxamide], the IC50 (ALDH1A1) was ≥ 100 µM and the IC50 (ALDH1A3) was < 0.1 µM.
With `Cc1nn(C)cc1C1CCCN1CCOc1ccc2c(c1)CCC(=O)N2` (stereo not shown) [ALDHI-2015, 6-[2-[2-(1,3-dimethylpyrazol-4-yl)pyrrolidin-1-yl]ethoxy]-3,4-dihydro-1H-quinolin-2-one] the IC50 (ALDH1A1) was ≥ 100 µM and the IC50 (ALDH1A3) was 1 to 10 µM.
For `Cn1cccc1C1CCCN1CCOc1ccc2c(c1)CCC(=O)N2` (stereo not shown) [ALDHI-2017, 6-[2-[2-(1-methylpyrrol-2-yl)pyrrolidin-1-yl]ethoxy]-3,4-dihydro-1H-quinolin-2-one], the IC50 (ALDH1A1) was ≥ 100 µM and the IC50 (ALDH1A3) was 1 to 10 µM.
With `Cn1cc(C2CCCN2CCOc2ccc3c(c2)OCC(=O)N3)cn1` (stereo not shown) [ALDHI-2024, 7-[2-[2-(1-methylpyrazol-4-yl)pyrrolidin-1-yl]ethoxy]-4H-1,4-benzoxazin-3-one] the IC50 (ALDH1A1) was ≥ 100 µM and the IC50 (ALDH1A3) was 1 to 10 µM.
For `O=C1COc2cc(OCCN3CCCC3c3ccccn3)ccc2N1` (stereo not shown) [ALDHI-2025, 7-[2-[2-(2-pyridyl)pyrrolidin-1-yl]ethoxy]-4H-1,4-benzoxazin-3-one], the IC50 (ALDH1A1) was ≥ 100 µM and the IC50 (ALDH1A3) was 1 to 10 µM.
`O=C1CCc2cc(OCCN3CCNCC3c3ccccc3)ccc2N1` (stereo not shown) [ALDHI-2036, 6-[2-(2-phenylpiperazin-1-yl)ethoxy]-3,4-dihydro-1H-quinolin-2-one] was tested, and the IC50 (ALDH1A1) was ≥ 100 µM and the IC50 (ALDH1A3) was 1 to 10 µM.
`CS(=O)(=O)N1CCN(CCOc2ccc3c(c2)CCC(=O)N3)C(c2ccccc2)C1` (stereo not shown) [ALDHI-2046, 6-[2-(4-methylsulfonyl-2-phenyl-piperazin-1-yl)ethoxy]-3,4-dihydro-1H-quinolin-2-one] was tested, and the IC50 (ALDH1A1) was 10 to 100 µM and the IC50 (ALDH1A3) was 1 to 10 µM.
`CCCC1Oc2cc(OCCN3CCCC3c3cccc(F)c3)ccc2NC1=O` (stereo not shown) [ALDHI-2047, 7-[2-[2-(3-fluorophenyl)pyrrolidin-1-yl]ethoxy]-2-propyl-4H-1,4-benzoxazin-3-one] was tested, and the IC50 (ALDH1A1) was ≥ 100 µM and the IC50 (ALDH1A3) was 1 to 10 µM.
With `CC(C)C1Oc2cc(OCCN3CCCC3c3cccc(F)c3)ccc2NC1=O` (stereo not shown) [ALDHI-2049, 7-[2-[2-(3-fluorophenyl)pyrrolidin-1-yl]ethoxy]-2-isopropyl-4H-1,4-benzoxazin-3-one] the IC50 (ALDH1A1) was ≥ 100 µM and the IC50 (ALDH1A3) was 1 to 10 µM.
`CN(CCOc1ccc2c(c1)CCC(=O)N2)Cc1cnn(C)c1` [ALDHI-3009, 6-[2-[methyl-[(1-methylpyrazol-4-yl)methyl]amino]ethoxy]-3,4-dihydro-1H-quinolin-2-one] showed an IC50 (ALDH1A1) of 10 to 100 µM and an IC50 (ALDH1A3) of 1 to 10 µM.
Work on `Cn1cc(CN(CCO)CCOc2ccc3c(c2)CCC(=O)N3)cn1` [ALDHI-3011, 6-[2-[2-hydroxyethyl-[(1-methylpyrazol-4-yl)methyl]amino]ethoxy]-3,4-dihydro-1H-quinolin-2-one] yielded an IC50 (ALDH1A1) of 10 to 100 µM and an IC50 (ALDH1A3) of 1 to 10 µM.
With `CN(CCOc1ccc2c(c1)CCC(=O)N2)Cc1ccccn1` [ALDHI-3012, 6-[2-[methyl(2-pyridylmethyl)amino]ethoxy]-3,4-dihydro-1H-quinolin-2-one] the IC50 (ALDH1A1) was ≥ 100 µM and the IC50 (ALDH1A3) was 1 to 10 µM.
In the case of `CN(CCOc1ccc2c(c1)CCC(=O)N2)Cc1ccncc1` [ALDHI-3014, 6-[2-[methyl(4-pyridylmethyl)amino]ethoxy]-3,4-dihydro-1H-quinolin-2-one], the IC50 (ALDH1A1) is reported as ≥ 100 µM and the IC50 (ALDH1A3) is reported as 1 to 10 µM.
